Laboratory results: PubChem BioAssay AID2060363 (Molecular Pharmacology Branch, DTP, NCI, 2025)
Values joined by “and” are separate entries in the source; they are usually repeats but may differ in a detail not shown here. Equal entries are not always repeated.

Tested on: 156681-154-R-J1-PDC tumor spheroids, viability % test/control
Assay: Anticancer human tumor 156681-154-R-J1-PDC patient-derived melanoma cell line growth inhibition [TAK]
Settings: spheroids with HUVEC and MSC; for viability, T/C: stronger effect = lower value
Outline: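 Drug combinations, each paired with TAK-243 or ipatasertib, were tested on multi-cell spheroids of 60% malignant cells, 25% HUVEC and 15% hMSC. Top concentrations were at or near the clinical Cmax (10 microM if undetermined), decreasing by half-log; viability is given as % test/control.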

[1] = curve of first compound, second compound 0.3 µM
[2] = curve of first compound, second compound 0.949 µM
[3] = curve of first compound, second compound 3 µM
[4] = curve of first compound, second compound 9.49 µM
[5] = curve of first compound, second compound 30 µM
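Note: spheroids exposed to compounds for 7 days before the endpoint.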

## CC(=O)Nc1cccc(-n2c(=O)n(C3CC3)c(=O)c3c(Nc4ccc(I)cc4F)n(C)c(=O)c(C)c32)c1 + CC(C)NCC(C(=O)N1CCN(c2ncnc3c2C(C)CC3O)CC1)c1ccc(Cl)cc1
[1]
  IC50: 3.28 nM
[2]
  IC50: 3.04 nM
[3]
  IC50: 1.39 nM
[4]
  IC50: < 0.0949 nM
[5]
  IC50: < 0.0949 nM
Second compound 0.3 µM, first compound 94.9 pM
  viability, T/C: 92%
Second compound 0.3 µM, first compound 0.0003 µM
  viability, T/C: 105%
Second compound 0.3 µM, first compound 0.000949 µM
  viability, T/C: 95.2%
Second compound 0.3 µM, first compound 0.003 µM
  viability, T/C: 53.3%
Second compound 0.3 µM, first compound 0.00949 µM
  viability, T/C: 11%
Second compound 0.3 µM, first compound 0.03 µM
  viability, T/C: 7.15%
Second compound 0.949 µM, first compound 94.9 pM
  viability, T/C: 88.9%
Second compound 0.949 µM, first compound 0.0003 µM
  viability, T/C: 89.2%
Second compound 0.949 µM, first compound 0.000949 µM
  viability, T/C: 84.2%
Second compound 0.949 µM, first compound 0.003 µM
  viability, T/C: 50.8%
Second compound 0.949 µM, first compound 0.00949 µM
  viability, T/C: 8.92%
Second compound 0.949 µM, first compound 0.03 µM
  viability, T/C: 6.03%
Second compound 3 µM, first compound 94.9 pM
  viability, T/C: 72.3%
Second compound 3 µM, first compound 0.0003 µM
  viability, T/C: 69.3%
Second compound 3 µM, first compound 0.000949 µM
  viability, T/C: 63.6%
Second compound 3 µM, first compound 0.003 µM
  viability, T/C: 22.9%
Second compound 3 µM, first compound 0.00949 µM
  viability, T/C: 7.24%
Second compound 3 µM, first compound 0.03 µM
  viability, T/C: 2.71%
Second compound 9.49 µM, first compound 94.9 pM
  viability, T/C: 43.4%
Second compound 9.49 µM, first compound 0.0003 µM
  viability, T/C: 43.6%
Second compound 9.49 µM, first compound 0.000949 µM
  viability, T/C: 31.1%
Second compound 9.49 µM, first compound 0.003 µM
  viability, T/C: 13%
Second compound 9.49 µM, first compound 0.00949 µM
  viability, T/C: 3.14%
Second compound 9.49 µM, first compound 0.03 µM
  viability, T/C: 0.73%
Second compound 30 µM, first compound 94.9 pM
  viability, T/C: 17.9%
Second compound 30 µM, first compound 0.0003 µM
  viability, T/C: 18.9%
Second compound 30 µM, first compound 0.000949 µM
  viability, T/C: 11.8%
Second compound 30 µM, first compound 0.003 µM
  viability, T/C: 4.9%
Second compound 30 µM, first compound 0.00949 µM
  viability, T/C: 1.63%
Second compound 30 µM, first compound 0.03 µM
  viability, T/C: 0.28%

## CC(C)CC(NC(=O)C(Cc1ccccc1)NC(=O)c1cnccn1)B(O)O (configuration not stated) + CC(C)NCC(C(=O)N1CCN(c2ncnc3c2C(C)CC3O)CC1)c1ccc(Cl)cc1
[1]
  IC50: 2.09 nM
[2]
  IC50: 1.76 nM
[3]
  IC50: 1.44 nM
[4]
  IC50: < 0.0316 nM
[5]
  IC50: < 0.0316 nM
Second compound 0.3 µM, first compound 31.6 pM
  viability, T/C: 98.5%
Second compound 0.3 µM, first compound 0.0001 µM
  viability, T/C: 97%
Second compound 0.3 µM, first compound 0.000316 µM
  viability, T/C: 91.9%
Second compound 0.3 µM, first compound 0.001 µM
  viability, T/C: 97.3%
Second compound 0.3 µM, first compound 0.00316 µM
  viability, T/C: 23.9%
Second compound 0.3 µM, first compound 0.01 µM
  viability, T/C: 0.32%
Second compound 0.949 µM, first compound 31.6 pM
  viability, T/C: 85.2%
Second compound 0.949 µM, first compound 0.0001 µM
  viability, T/C: 87.4%
Second compound 0.949 µM, first compound 0.000316 µM
  viability, T/C: 91%
Second compound 0.949 µM, first compound 0.001 µM
  viability, T/C: 90.1%
Second compound 0.949 µM, first compound 0.00316 µM
  viability, T/C: 9.77%
Second compound 0.949 µM, first compound 0.01 µM
  viability, T/C: 0.19%
Second compound 3 µM, first compound 31.6 pM
  viability, T/C: 63.9%
Second compound 3 µM, first compound 0.0001 µM
  viability, T/C: 67.6%
Second compound 3 µM, first compound 0.000316 µM
  viability, T/C: 66%
Second compound 3 µM, first compound 0.001 µM
  viability, T/C: 66.7%
Second compound 3 µM, first compound 0.00316 µM
  viability, T/C: 15.7%
Second compound 3 µM, first compound 0.01 µM
  viability, T/C: 0.22%
Second compound 9.49 µM, first compound 31.6 pM
  viability, T/C: 40.6%
Second compound 9.49 µM, first compound 0.0001 µM
  viability, T/C: 39%
Second compound 9.49 µM, first compound 0.000316 µM
  viability, T/C: 37.8%
Second compound 9.49 µM, first compound 0.001 µM
  viability, T/C: 37.6%
Second compound 9.49 µM, first compound 0.00316 µM
  viability, T/C: 7.12%
Second compound 9.49 µM, first compound 0.01 µM
  viability, T/C: 0.21%
Second compound 30 µM, first compound 31.6 pM
  viability, T/C: 17.8%
Second compound 30 µM, first compound 0.0001 µM
  viability, T/C: 18.6%
Second compound 30 µM, first compound 0.000316 µM
  viability, T/C: 16.9%
Second compound 30 µM, first compound 0.001 µM
  viability, T/C: 17.3%
Second compound 30 µM, first compound 0.00316 µM
  viability, T/C: 1.86%
Second compound 30 µM, first compound 0.01 µM
  viability, T/C: 0.31%

## COc1c(OCCCN2CCOCC2)ccc2c3n(c(=NC(=O)c4cnc(N)nc4)nc12)CCN3
Compound 0.00316 µM
  viability, T/C: 101% and 102%
Compound 0.01 µM
  viability, T/C: 91.1% and 89.1%
Compound 0.0316 µM
  viability, T/C: 67.9% and 77.9%
Compound 0.1 µM
  viability, T/C: 41.9% and 35.2%
Compound 0.316 µM
  viability, T/C: 13.5% and 10.8%
Compound 1 µM
  viability, T/C: 2.91% and 1.78%
Curve of compound
  IC50: 67.3 nM and 67 nM

## Cc1nc(NC(=O)N2CCCC2C(N)=O)sc1-c1ccnc(C(C)(C)C(F)(F)F)c1 (configuration not stated)
Compound 0.0316 µM
  viability, T/C: 97.2% and 99.7%
Compound 0.1 µM
  viability, T/C: 94.9% and 98.4%
Compound 0.316 µM
  viability, T/C: 86.1% and 86.6%
Compound 1 µM
  viability, T/C: 86.8% and 74.4%
Compound 3.16 µM
  viability, T/C: 67.9% and 64.5%
Compound 10 µM
  viability, T/C: 52.8% and 56.2%
Curve of compound
  IC50: > 10000 nM

## CCCS(=O)(=O)Nc1ccc(F)c(C(=O)c2c[nH]c3ncc(-c4ccc(Cl)cc4)cc23)c1F
Compound 0.316 µM
  viability, T/C: 115% and 97.9%
Compound 1 µM
  viability, T/C: 107% and 92.3%
Compound 3.16 µM
  viability, T/C: 106% and 99.3%
Compound 10 µM
  viability, T/C: 12.5% and 20.2%
Compound 31.6 µM
  viability, T/C: 103% and 16.7%
Compound 100 µM
  viability, T/C: 83.9% and 100%

## CC(C)(C)c1nc(-c2cccc(NS(=O)(=O)c3c(F)cccc3F)c2F)c(-c2ccnc(N)n2)s1
Compound 0.0316 µM
  viability, T/C: 106% and 91.4%
Compound 0.1 µM
  viability, T/C: 95.8% and 92.3%
Compound 0.316 µM
  viability, T/C: 41.5% and 37.8%
Compound 1 µM
  viability, T/C: 17.2% and 17.8%
Compound 3.16 µM
  viability, T/C: 14.4% and 14.5%
Compound 10 µM
  viability, T/C: 18%
Curve of compound
  IC50: 264 nM and 243 nM
